According to patent US7186755B2 (Helsinn Health Care S.A., priority 1997, dated 2007):
Like-named read-outs stand apart in the source and are kept apart here.

How the values were obtained:
[1] = human volunteers, 14C nimesulide
[2] = rats, 14C nimesulide

CS(=O)(=O)Nc1ccc([N+](=O)[O-])cc1Oc1ccccc1 [Nimesulide]
Systemic concentrations of nimesulide after dermal application [1]: no significant systemic concentrations | Systemic concentrations of nimesulide after dermal application [2]: no significant systemic concentrations
